Assay: method code SF-AS, from DOI: 10.1271/bbb1961.38.1521

SMILES | logP
CCc1ccccc1OC(=O)NC | 1.93
CNC(=O)Oc1cccc(C=O)c1 | 0.92
CNC(=O)Oc1cc(C)ccc1C(C)C | 2.84
CCCCOc1cccc(OC(=O)NC)c1 | 2.96
CNC(=O)Oc1ccc(C(=O)OC)cc1 | 1.5
CNC(=O)Oc1cccc2ccccc12 | 2.36
CNC(=O)Oc1cc(C)cc(C(C)(C)C)c1 | 3.35
CNC(=O)Oc1ccccc1OC | 0.81
CNC(=O)Oc1cc(C)ccc1C | 2.03
CNC(=O)Oc1cccc(C(F)(F)F)c1 | 2.37
CNC(=O)Oc1ccc2ccccc2c1 | 2.56
CNC(=O)Oc1cccc(OC(C)C)c1 | 1.96
CNC(=O)Oc1ccccc1I | 1.96
CNC(=O)Oc1ccc(Cl)c(C)c1 | 2.57
CNC(=O)Oc1ccc(C(C)=O)cc1 | 1.01
CNC(=O)Oc1ccc(SC)c(C)c1 | 2.47
CNC(=O)Oc1ccc([N+](=O)[O-])cc1 | 1.47
CNC(=O)Oc1ccccc1F | 1.25
CCCc1cccc(OC(=O)NC)c1 | 2.64
CCC(=O)c1ccc(OC(=O)NC)cc1 | 1.55
CNC(=O)Oc1cccc(F)c1 | 1.48
CNC(=O)Oc1cc(Cl)cc(Cl)c1 | 3.03
CNC(=O)Oc1ccccc1Br | 1.77
CNC(=O)Oc1ccc(S(C)(=O)=O)cc1 | 0.34
CNC(=O)Oc1cccc(C(C)(C)C)c1 | 2.93
CNC(=O)Oc1ccccc1Cl | 1.64

SMILES | logP
CNC(=O)Oc1cc(C)cc(C(C)C)c1 | 3.1
CNC(=O)Oc1cc(C)ccc1C(C)(C)C | 3.14
CCCCOc1ccc(OC(=O)NC)cc1 | 2.86
CCC(C)c1ccc(OC(=O)NC)cc1 (stereo unspecified) | 3.2
CNC(=O)Oc1cccc(C(=O)OC)c1 | 1.42
CNC(=O)Oc1ccc(Cl)c(Cl)c1 | 2.8
CNC(=O)Oc1cccc(C)c1C | 1.95
CNC(=O)Oc1ccc(C(C)(C)C)cc1 | 3.06
CNC(=O)Oc1ccc(C(C)(C)C)c(C)c1 | 3.38
CNC(=O)Oc1ccc(C=O)cc1 | 0.99
CCCc1ccc(OC(=O)NC)cc1 | 2.72
CNC(=O)Oc1ccccc1C(C)C | 2.31
CNC(=O)Oc1ccc(SC)cc1 | 1.92
CNC(=O)Oc1ccccc1[N+](=O)[O-] | 1.02
CNC(=O)Oc1ccccc1C | 1.46
CNC(=O)Oc1cccc(Br)c1 | 2.25
CNC(=O)Oc1ccc(Cl)cc1 | 2.01
CCOc1ccccc1OC(=O)NC | 1.24
CNC(=O)Oc1ccccc1C(C)(C)C | 2.65
CNC(=O)Oc1ccc(C#N)cc1 | 0.95
CNC(=O)Oc1ccccc1C#N | 0.86
CCCc1ccccc1OC(=O)NC | 2.4
CNC(=O)Oc1ccc(Br)cc1 | 2.17
CNC(=O)Oc1cccc(Cl)c1 | 2.03
CNC(=O)Oc1cccc(C(C)C)c1 | 2.63

Source: the SangsterLogP compilation
